Results from US9107905B2 (Agency for Science, Technology and Research, priority 2006, dated 2015).
Like-named read-outs stand apart in the source and are kept apart here.

Tests used:
C. albicans yeast cells = test: hyphal induction assay (germ tube formation, yeast-hypha switch); format: cell-based, Candida albicans; conditions: for EC50: read-out: I50 (hyphal induction); for hypha-inducing activity: result in words
[1] = tested on: GST-LRR fusion protein (LRR domain of CaCdc35p); test: circular dichroism (CD) spectroscopy of recombinant LRR domain; format: binding, Candida albicans
From the text: Next, the possibility that MLA 71Q may directly bind to the LRR domain of CaCdc35p was explored. The wild-type LRR domain and that of Irr9mu were expressed in E. coli as glutathione-S-transferase (GST) fusions and purified to high homogeneity. Then circular dichroism (CD) spectroscopy was used to detect possible direct interaction between the LRR domain and MLADIQ. CD is a reliable tool in detecting conformational changes in a protein as a result of ligand binding (Woody, R. W. (1995). Methods Enzymol. 246, 34-71).

[2] = target: GST-LRR fusion (LRR domain of CaCdc35p) (Candida albicans, UniProt A0A1D8PR83); test: tryptophan fluorescence quenching of recombinant LRR domain; format: binding; conditions: for Kd: nonlinear regression of fluorescence quenching, read-out: equilibrium dissociation constant (Kd); for fluorescence quenching: result in words
GST-LRR fusion (LRR domain of CaCdc35p), sequence (A0A1D8PR83 entry or part of it): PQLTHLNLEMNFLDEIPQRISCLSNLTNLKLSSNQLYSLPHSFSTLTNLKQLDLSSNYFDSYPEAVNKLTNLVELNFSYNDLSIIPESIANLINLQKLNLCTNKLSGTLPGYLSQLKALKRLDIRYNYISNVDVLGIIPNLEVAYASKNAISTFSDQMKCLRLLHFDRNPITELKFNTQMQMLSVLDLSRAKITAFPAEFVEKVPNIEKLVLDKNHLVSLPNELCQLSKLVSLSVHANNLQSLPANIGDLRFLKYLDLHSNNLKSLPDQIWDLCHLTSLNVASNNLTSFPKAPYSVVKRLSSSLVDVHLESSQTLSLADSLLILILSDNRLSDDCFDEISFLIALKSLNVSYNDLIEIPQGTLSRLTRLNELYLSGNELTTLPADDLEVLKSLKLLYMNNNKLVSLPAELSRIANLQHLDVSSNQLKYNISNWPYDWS
From the text: Since specific binding of a molecule to a tryptophan-containing protein may cause concentration-dependent quenching; of tryptophan fluorescence, fluorescence spectroscopy was used to measure the intensity of tryptophan fluorescence of the recombinant LRR domains in the presence of different concentrations of MLADiQ. […] The fluorescence spectrum of GST was not affected by any of the compounds used.

[3] = synthetic compounds and reference inducer

With `C[C@H](NC(=O)[C@@H](C)O[C@H]1[C@H](O)[C@@H](CO)OC(O)[C@@H]1N)C(=O)O` (stereo partly drawn) the EC50 (C. albicans yeast cells; synthetic compounds) was ~200 µM, the “shift of the ellipticity values of the CD spectra” value (from here on “shift”) [1] was “weaker but consistent spectrum shift” and the Kd [2] was 1.67 ± 0.13 µM. The fluorescence quenching [2] was “lower levels of fluorescence quenching”.

For `CC(=O)N[C@H]1C(O)O[C@H](CO)[C@@H](O)[C@@H]1O[C@H](C)C(=O)O` (stereo partly drawn) [N-acetylmuramic acid, reference compound], the hypha-inducing activity (C. albicans yeast cells) was “Neither muramic nor N-acetylmuramic acid was active”.

In the case of `CC(=O)N[C@H]1C(O)O[C@H](CO)[C@@H](O)[C@@H]1O` (stereo partly drawn) [NAG, N-Acetylglucosamine, reference compound], the EC50 (C. albicans yeast cells; [3]) is reported as ~3000 µM, the “shift” value [1] is reported as “weaker but consistent spectrum shift” and the Kd [2] is reported as 6.8 ± 0.32 µM. The fluorescence quenching [2] was “lower levels of fluorescence quenching”.

`CC(=O)NC1C(O)OC(CO)C(O)C1OC(C)C(=O)NC(C)C(=O)O` [NMLA, N-acetylmurmyl-L-alanine] was tested, and the EC50 (C. albicans yeast cells; [3]) was ~8000 µM.

For `CC(=O)NC1C(O)OC(CO)C(O)C1OC(C)C(=O)NC(C)C(=O)NC(CCC(=O)O)C(N)=O` [NMLADiQ, N-acetylmuramyl-L-alanyl-D isoglutamine], the “concentration above which the activity started to drop significantly” value (C. albicans yeast cells) was “above 20 mM”, the “highest germ tube formation induced” value (C. albicans yeast cells; at increased concentrations) was ≤ 60% and the “times less active than MLADiQ” value (C. albicans yeast cells; from I50) was 600 times. For the same molecule, the EC50 (C. albicans yeast cells; [3]) was ~6000 µM, the “shift” value [1] was “weaker but consistent spectrum shift” and the Kd [2] was 5.26 ± 0.47 µM. The fluorescence quenching [2] was “lower levels of fluorescence quenching”.

For `O=C(CO)[C@@H](O)[C@H](O)[C@H](O)CO` [fructose, reference compound], the hypha-inducing activity (C. albicans yeast cells) was “none of these compounds was found to have appreciable hypha-inducing activity”.

With `OCC(O)CO` [glycerol, reference compound] the hypha-inducing activity (C. albicans yeast cells) was “none of these compounds was found to have appreciable hypha-inducing activity”.

With `CC(O)C(=O)O` (stereo not drawn) [lactic acid, reference compound] the hypha-inducing activity (C. albicans yeast cells) was “none of these compounds was found to have appreciable hypha-inducing activity”.

With `C[C@@H](O[C@H]1[C@H](O)[C@@H](CO)OC(O)[C@@H]1N)C(=O)O` (stereo partly drawn) [muramic, muramic acid, reference compound] the hypha-inducing activity (C. albicans yeast cells) was “Neither muramic nor N-acetylmuramic acid was active”.
